Results on one molecule are retold here after ChEMBL document CHEMBL1144470, “Occurrence of the alpha-glucosidase inhibitor 1,4-Dideoxy-1,4-imino-D-arabinitol and related iminopentitols in marine sponges” (J Nat Prod, 2007).

The nature of the test: Inhibition of yeast alpha-glucosidase. On the set-up: species or system Saccharomyces cerevisiae.

In brackets after ≈: the same amount, converted by molar mass.

The IC50 is the midpoint of a concentration-inhibition curve. Turning to `OC[C@H]1NC[C@@H](O)[C@@H]1O`, the IC50 turned out to be 0.16 µg/mL (≈ 1.2 µM).
